For orientation: IC50 means the midpoint of a concentration-inhibition curve.

This test addresses T1, human FPTase (Homo sapiens, UniProt P49354+P49356).
T1 construct: made in house
In words: In vitro inhibition of ras farnesyl transferase (human FPTase assay, [3H]-FPP incorporation into Ras-CVIM). The test is classed as biochemical. The settings on record: 100 nM Ras-CVIM, 30 min, read-out: IC50, inhibitory activity against human FPTase.

Where a name gives a salt, the structure may show the parent alone.

In the case of `N#Cc1ccc(Cn2cncc2CN2CCN(c3cccc(Cl)c3)C(=O)C2=O)cc1` [Example 1, 4-[1-(4-Cyanobenzyl)-5-imidazolylmethyl]-1-(3-chlorophenyl)-piperazine-2,3-dione hydrochloride], the 50% inhibitory concentration (IC50) is at most 10 µM. In the case of `CCCC[C@H]1CN(c2cccc(C)c2C)C(=O)C(=O)N1Cc1cncn1Cc1ccc(C#N)cc1` [Example 2, (S)-5-n-butyl-4-[1-(4-cyanobenzyl)-5-imidazolylmethyl]-1-(2,3-dimethylphenyl)-2,3-piperazinedione hydrochloride], the IC50 is at most 10 µM.

These data come from US5859012A, “Inhibitors of farnesyl-protein transferase” (Merck & Co., Inc., priority 1997, dated 1999).
